According to patent publication US10105357B2, “Indication of antibiotic drugs for preparation of cancer inhibition pharmaceutical composition” (LAUNX BIOMEDICAL CO., LTD., priority 2014, dated 2018):
Structures can show the parent of a compound that is named as a salt. Where two headings read alike, the source gives them in different places.

What was measured:
[1] = test system: HI650 (Lung Adenocarcinoma); test: Cell viability analysis, lung cancer HI650; type: cell-based, human; conditions: Homo sapiens, NCI-H1650, 72 h
[2] = test system: C-33A (Cervical carcinoma); test: Cell viability analysis, cervical cancer C-33A; type: cell-based, human; conditions: Homo sapiens, 72 h; C-33A; repeated experiment; read-out: The results of antibiotic drug inhibiting cancer cell lines (cell viability analysis), C-33A
[3] = test system: HepG2 (Hepatocellular Carcinoma); test: Cell viability analysis, hepatic cancer HepG2; type: cell-based, human; conditions: Homo sapiens, HepG2, 72 h
[4] = test system: 786-O (Renal adenocarcinoma); test: Cell viability analysis, renal cancer 786-O; type: cell-based, human; conditions: Homo sapiens, 786-0, 72 h; 786-O; repeated experiment; read-out: The results of antibiotic drug inhibiting cancer cell lines (cell viability analysis), 786-O
[5] = test system: AsPC-1; test: Cell viability analysis, pancreatic cancer AsPC-1; type: cell-based, human; conditions: Homo sapiens, ASPC1, 72 h; AsPC-1; repeated experiment; read-out: The results of antibiotic drug inhibiting cancer cell lines (cell viability analysis), AsPC-1
[6] = test system: NIH: OVCAR-3; test: Cell viability analysis, ovarian cancer NIH: OVCAR-3; type: cell-based, human; conditions: Homo sapiens, 72 h; NIH-OVCAR-3; repeated experiment; read-out: The results of antibiotic drug inhibiting cancer cell lines (cell viability analysis), NIH-OVCAR-3
[7] = test system: U-2OS; test: Cell viability analysis, osteosarcoma U-2OS; type: cell-based, human; conditions: Homo sapiens, 72 h; U2OS; repeated experiment; read-out: The results of antibiotic drug inhibiting cancer cell lines (cell viability analysis), U2OS
[8] = test system: HL-60 (Acute Promyelocytic Leukemia); test: Cell viability analysis, leukemia HL-60; type: cell-based, human; conditions: Homo sapiens, HL-60, 72 h, drug 10 μM, 72 hours, WST-1, OD450 nm; read-out: cell viability (survival rate), HL-60
[9] = test system: MDA-MB-231 (Mammary Gland, Adenocarcinoma); test: Cell viability analysis, breast cancer MDA-MB-231; type: cell-based, human; conditions: Homo sapiens, MDA-MB-231, 72 h; MDA-MB231; repeated experiment; read-out: The results of antibiotic drug inhibiting cancer cell lines (cell viability analysis), MDA-MB231
[10] = test system: cancer cell lines; test: Cell viability analysis (WST-1) on cancer cell lines; type: cell-based, human; conditions: drug 10 μM, 72 hours, WST-1; Table 3
[11] = test system: SAS (Tongue squamous cell carcinoma); test: Cell viability analysis, tongue cancer SAS; type: cell-based, human; conditions: Homo sapiens, 72 h; SAS; repeated experiment; read-out: The results of antibiotic drug inhibiting cancer cell lines (cell viability analysis), SAS
[12] = test system: MCF7 (Mammary Gland, Adenocarcinoma); test: Cell viability analysis, breast cancer MCF7; type: cell-based, human; conditions: Homo sapiens, MCF7, 72 h
[13] = test system: A375 (Amelanotic Melanoma); test: Cell viability analysis, skin cancer A375; type: cell-based, human; conditions: Homo sapiens, A-375, 72 h
[14] = test system: BxPC-3; test: Cell viability analysis, pancreatic cancer BxPC-3; type: cell-based, human; conditions: Homo sapiens, 72 h; BxPC-3; repeated experiment; read-out: The results of antibiotic drug inhibiting cancer cell lines (cell viability analysis), BxPC-3
[15] = test system: MKN-45 (Gastric Adenocarcinoma); test: Cell viability analysis, gastric cancer MKN-45; type: cell-based, human; conditions: Homo sapiens, MKN-45, 72 h
[16] = test system: PC3 (p53−) (Prostate Adenocarcinoma); test: Cell viability analysis, prostate cancer PC3; type: cell-based, human; conditions: Homo sapiens, 72 h
[17] = test system: TOV-21G; test: Cell viability analysis, ovarian cancer TOV-21G; type: cell-based, human; conditions: Homo sapiens, TOV21G, 72 h; TOV-21G; repeated experiment; read-out: The results of antibiotic drug inhibiting cancer cell lines (cell viability analysis), TOV-21G
[18] = test system: HeLa (Cervix Adenocarcinoma); test: Cell viability analysis, cervical cancer HeLa; type: cell-based, human; conditions: Homo sapiens, HeLa, 72 h, HeLa
[19] = test system: Hep3B (hepatocellular carcinoma); test: Cell viability analysis, hepatic cancer Hep3B; type: cell-based, human; conditions: Homo sapiens, 72 h; Hep3B; repeated experiment; read-out: The results of antibiotic drug inhibiting cancer cell lines (cell viability analysis), Hep3B
[20] = test system: AGS (Gastric Adenocarcinoma); test: Cell viability analysis, gastric cancer AGS; type: cell-based, human; conditions: Homo sapiens, 72 h
[21] = test system: TSGH-8301 (Urinary Bladder Carcinoma); test: Cell viability analysis, bladder cancer TSGH-8301; type: cell-based, human; conditions: Homo sapiens, 72 h
[22] = test system: LoVo (Colorectal Adenocarcinoma); test: Cell viability analysis, colon cancer LoVo; type: cell-based, human; conditions: Homo sapiens, LoVo, 72 h
[23] = test system: A549 (Lung Adenocarcinoma); test: Cell viability analysis, lung cancer A549; type: cell-based, human; conditions: Homo sapiens, A549, 72 h
[24] = test system: HCT116 (p53+) (Colorectal Carcinoma)
[25] = H1650, repeated experiment, read-out: The results of antibiotic drug inhibiting cancer cell lines (cell viability analysis), H1650
[26] = drug 10 μM, 72 hours, WST-1, OD450 nm, read-out: cell viability (survival rate), H1650
[27] = HepG2, repeated experiment, read-out: The results of antibiotic drug inhibiting cancer cell lines (cell viability analysis), HepG2
[28] = drug 10 μM, 72 hours, WST-1, OD450 nm, read-out: cell viability (survival rate), HepG2
[29] = MCF-7, repeated experiment, read-out: The results of antibiotic drug inhibiting cancer cell lines (cell viability analysis), MCF-7
[30] = drug 10 μM, 72 hours, WST-1, OD450 nm, read-out: cell viability (survival rate), MCF7
[31] = A375, repeated experiment, read-out: The results of antibiotic drug inhibiting cancer cell lines (cell viability analysis), A375
[32] = drug 10 μM, 72 hours, WST-1, OD450 nm, read-out: cell viability (survival rate), A375
[33] = MKN-45, repeated experiment, read-out: The results of antibiotic drug inhibiting cancer cell lines (cell viability analysis), MKN-45
[34] = drug 10 μM, 72 hours, WST-1, OD450 nm, read-out: cell viability (survival rate), MKN-45
[35] = PC-3, repeated experiment, read-out: The results of antibiotic drug inhibiting cancer cell lines (cell viability analysis), PC-3
[36] = drug 10 μM, 72 hours, WST-1, OD450 nm, read-out: cell viability (survival rate), PC3
[37] = repeated experiment, read-out: The results of antibiotic drug inhibiting cancer cell lines (cell viability analysis), HeLa
[38] = drug 10 μM, 72 hours, WST-1, OD450 nm, read-out: cell viability (survival rate), HeLa
[39] = AGS, repeated experiment, read-out: The results of antibiotic drug inhibiting cancer cell lines (cell viability analysis), AGS
[40] = drug 10 μM, 72 hours, WST-1, OD450 nm, read-out: cell viability (survival rate), AGS
[41] = TSGH-8301, repeated experiment, read-out: The results of antibiotic drug inhibiting cancer cell lines (cell viability analysis), TSGH-8301
[42] = drug 10 μM, 72 hours, WST-1, OD450 nm, read-out: cell viability (survival rate), TSGH
[43] = read-out: The results of antibiotic drug inhibiting cancer cell lines (cell viability analysis), LoVo, repeated experiment
[44] = read-out: cell viability (survival rate), LoVo, drug 10 μM, 72 hours, WST-1, OD450 nm
[45] = A549, repeated experiment, read-out: The results of antibiotic drug inhibiting cancer cell lines (cell viability analysis), A549
[46] = drug 10 μM, 72 hours, WST-1, OD450 nm, read-out: cell viability (survival rate), A549

Compound | viability at 10 µM [1, 25] | viability at 10 µM [1, 26] | viability at 10 µM [2] | viability at 10 µM [3, 27] | viability at 10 µM [3, 28] | viability at 10 µM [4] | viability at 10 µM [5] | viability at 10 µM [6] | viability at 10 µM [7] | viability at 10 µM [8] | viability at 10 µM [9] | viability at 10 µM [11] | viability at 10 µM [12, 29] | viability at 10 µM [12, 30] | viability at 10 µM [13, 31] | viability at 10 µM [13, 32] | viability at 10 µM [14] | viability at 10 µM [15, 33] | viability at 10 µM [15, 34] | viability at 10 µM [16, 35] | also measured
CC(C)/N=c1\cc2n(-c3ccc(Cl)cc3)c3ccccc3nc-2cc1Nc1ccc(Cl)cc1 [Clofazimine] | 92.2% | 74.4% | 111% | 90.4% | 82.2% | 82.5% | 76.6% | 97.3% | 80.6% | 85% | 102% | 75.2% | 74.2% | 51.2% | 81.2% | 37.3% | 72.2% | 108% | 53.1% | 106% | inhibition effect on different cancer cell lines [10]: significant inhibition effect; viability at 10 µM [16, 36]: 53.2%; viability at 10 µM [17]: 65.1%; viability at 10 µM [18, 37]: 94.3%; viability at 10 µM [18, 38]: 59.3%; viability at 10 µM [19]: 91.6%; viability at 10 µM [20, 39]: 78.8%; viability at 10 µM [20, 40]: 64.2%; viability at 10 µM [21, 41]: 111%; viability at 10 µM [21, 42]: 51.7%; viability at 10 µM [22, 43]: 83.4%; viability at 10 µM [22, 44]: 68.3%; viability at 10 µM [23, 45]: 87.1%; viability at 10 µM [23, 46]: 49.5%
CN(C)CCC=C1c2ccccc2CCc2ccccc21 [Amitriptyline HCl] | 111% | 64.4% | 100% | 106% | 106% | 85.5% | 73.1% | 104% | 68.5% | 81.4% | 106% | 67.5% | 67.7% | 64.8% | 94.3% | 84.8% | 67.2% | 135% | 102% | 99.4% | inhibition effect on different cancer cell lines [10]: significant inhibition effect; viability at 10 µM [16, 36]: 61.9%; viability at 10 µM [17]: 118%; viability at 10 µM [18, 37]: 111%; viability at 10 µM [18, 38]: 90.6%; viability at 10 µM [19]: 124%; viability at 10 µM [20, 39]: 146%; viability at 10 µM [20, 40]: 61.5%; viability at 10 µM [21, 41]: 157%; viability at 10 µM [21, 42]: 133%; viability at 10 µM [22, 43]: 90.5%; viability at 10 µM [22, 44]: 96.5%; viability at 10 µM [23, 45]: 73.3%; viability at 10 µM [23, 46]: 69.3%
COc1c(C)c2c(c(O)c1C/C=C(\C)CCC(=O)O)C(=O)OC2 [Mycophenolic (Mycophenolate), Mycophenolic] | 54.5% | 83.1% | 51.8% | 62.1% | 72.9% | 24.7% | 48.1% | 59% | 43.2% | 65.6% | 56.9% | 43.2% | 70.3% | 120% | 28.9% | 57.4% | 45.7% | 64.9% | 61.7% | 55.4% | viability at 10 µM [16, 36]: 74.3%; viability [24]: 43.1%; viability at 10 µM [17]: 40.3%; viability at 10 µM [18, 37]: 46.1%; viability at 10 µM [18, 38]: 90.7%; viability at 10 µM [19]: 66.8%; viability at 10 µM [20, 39]: 31.7%; viability at 10 µM [20, 40]: 57.8%; viability at 10 µM [21, 41]: 57.5%; viability at 10 µM [21, 42]: 40.3%; viability at 10 µM [22, 43]: 58.6%; viability at 10 µM [22, 44]: 70.1%; viability at 10 µM [23, 45]: 39%; viability at 10 µM [23, 46]: 80.6%
